Patent US8158806B2, “DAT1” (Department of Biotechnology, priority 2004, dated 2012)
pIC50: −log10 of the molar value. Read-outs that look alike come from different tables or passages of the source.

Assays:
[1] = test system: SW 620; assay: MTT cell viability assay, SW 620; assay type: cell-based; details: SW 620 (Human colon), 48 hours, average of three experiments, read-out: IC50 values (growth inhibition constants)
Description: (§1) The compound DAT1 was tested for its cytotoxicity on human cervical, uterus and colon cancer cell lines and mouse fibrocercoma cells. Cell lines were obtained from ATCC, USA and NCCS, Pune, India. MTT assay, which correlates a fomazan dye formation wife the number of viable cells, was used for this purpose.
(§2) • 3. Cell Viability Assay: MTT assay was used to determine fee number of viable cells upon drug addition. Cells were seeded in microtitre plates (generally 5×10^3 cells per well) and were incubated with different concentrations of the cytotoxic agents for 48 h. Subsequently, 100 μl of MTT solution (0.6 mg/ml) was added per well and incubated at 37° C. for additional 2 h. The amount of formazan salt was quantified in quadruplicates by recording fee absorbance at 570 ran using a Biorad Plate reader. The growth inhibition constants (IC50) were calculated from the semi logarithmic dose response plots using fee nonlinear regression program Origin. All the experiments were done for at least three times. • 4. Microtubule and Tubulin Preparation: Microtubular protein was prepared from goat brains by two cycles of temperature dependent assembly-disassembly process in PEM buffer (100 mM PIPES, pH 6.9, 1 mM MgCl2 & 1 mM EGTA ) with 1 mM GTP at 37° C. For fee polymerization experiments, it was followed by one more cycle in PEM. Tubulin was purified from 2X MTP using glutamate buffer for assembly. • 5. Polymerization assay: MTP polymerization, in fee presence or absence of DAT1, was measured by the time course of fee turbidity at 37° at 345 nm. A Shimadzu UV-1601 double beam spectrophotometer fitted with a temperature-controlled circulating water bath was used for this purpose. • 6. […] Tubulin binding: Emission spectra of DAT1 in presence of tubulin were recorded from 400 nm to 600 nm using an excitation wavelength of 374 nm. Excitation and emission bandpasses are 2.5 nm each and the fluorescence values recorded are uncorrected. All fluorescence measurements were performed in a Perkin-Elmer model LS50B Luminescence spectrometer.

[2] = test system: MES-SA/Dx5; assay: MTT cell viability assay, multidrug resistant MES-SA/Dx5; assay type: cell-based, Human; details: for pIC50: MES-SA/Dx5 (Human uterus), multidrug resistant, 48 hours, MTT, average of three experiments, read-out: IC50 values (growth inhibition constants)
Description: as §1
• 3. Cell Viability Assay: MTT assay was used to determine fee number of viable cells upon drug addition. Cells were seeded in microtitre plates (generally 5×10^3 cells per well) and were incubated with different concentrations of the cytotoxic agents for 48 h. Subsequently, 100 μl of MTT solution (0.6 mg/ml) was added per well and incubated at 37° C. for additional 2 h. The amount of formazan salt was quantified in quadruplicates by recording fee absorbance at 570 ran using a Biorad Plate reader. The growth inhibition constants (IC50) were calculated from the semi logarithmic dose response plots using fee nonlinear regression program Origin. All the experiments were done for at least three times. • 4. Microtubule and Tubulin Preparation: Microtubular protein was prepared from goat brains by two cycles of temperature dependent assembly-disassembly process in PEM buffer (100 mM PIPES, pH 6.9, 1 mM MgCl2 & 1 mM EGTA ) with 1 mM GTP at 37° C. For fee polymerization experiments, it was followed by one more cycle in PEM. Tubulin was purified from 2X MTP using glutamate buffer for assembly. • 5. Polymerization assay: MTP polymerization, in fee presence or absence of DAT1, was measured by the time course of fee turbidity at 37° at 345 nm. A Shimadzu UV-1601 double beam spectrophotometer fitted with a temperature-controlled circulating water bath was used for this purpose. • 6. Immunofluorescence assay: HeLa cells were incubated with the drug for 24 h at 37° C., washed with PBS and fixed with 4% paraformaldehyde at 4° C. Subsequently, they were washed and permeabilized with 0.2% Triton X-100 in PBS for 20 min at 37° C. […] Tubulin binding: Emission spectra of DAT1 in presence of tubulin were recorded from 400 nm to 600 nm using an excitation wavelength of 374 nm. Excitation and emission bandpasses are 2.5 nm each and the fluorescence values recorded are uncorrected. All fluorescence measurements were performed in a Perkin-Elmer model LS50B Luminescence spectrometer.

[3] = test system: HeLa; assay: MTT cell viability assay, HeLa; assay type: cell-based; details: HeLa (Human cervix), 48 hours, average of three experiments, read-out: IC50 values (growth inhibition constants)
Description: as §1, §2

[4] = test system: SiHa; assay: MTT cell viability assay, SiHa; assay type: cell-based; details: SiHa (Human cervix), 48 hours, average of three experiments, read-out: IC50 values (growth inhibition constants)
Description: as §1
(§3) • 3. Cell Viability Assay: MTT assay was used to determine fee number of viable cells upon drug addition. Cells were seeded in microtitre plates (generally 5×10^3 cells per well) and were incubated with different concentrations of the cytotoxic agents for 48 h. Subsequently, 100 μl of MTT solution (0.6 mg/ml) was added per well and incubated at 37° C. for additional 2 h. The amount of formazan salt was quantified in quadruplicates by recording fee absorbance at 570 ran using a Biorad Plate reader. The growth inhibition constants (IC50) were calculated from the semi logarithmic dose response plots using fee nonlinear regression program Origin. […] Polymerization assay: MTP polymerization, in fee presence or absence of DAT1, was measured by the time course of fee turbidity at 37° at 345 nm. […] Tubulin binding: Emission spectra of DAT1 in presence of tubulin were recorded from 400 nm to 600 nm using an excitation wavelength of 374 nm. Excitation and emission bandpasses are 2.5 nm each and the fluorescence values recorded are uncorrected. […]

[5] = test system: HCT 116; assay: MTT cell viability assay, HCT 116; assay type: cell-based; details: HCT 116 (Human colon), 48 hours, average of three experiments, read-out: IC50 values (growth inhibition constants)
Description: as §1, §2

[6] = test system: IMR 90 (lung epithelial); assay: Cell survival in normal immortalized cell line; assay type: cell-based; details: concentration much more than the IC50 values in the cancer cell lines; data not shown
Description: The cell survival in fee normal immortalized cell line IMR 90 (lung epithelial) was good after fee treatment of DAT1 in a concentration which was much more than the IC50 values in all fee cancer cell lines tested. In comparison, fee cell survival was less upon vinblastine treatment and similar upon paclitaxel treatment in similar concentrations (data not shown).

[7] = test system: L-929; assay: MTT cell viability assay, L-929; assay type: cell-based; details: L929, L-929 (Mouse connective tissue), 48 hours, average of three experiments, read-out: IC50 values (growth inhibition constants)
Description: as §1, §3

[8] = test system: CaSki; assay: MTT cell viability assay, CaSki; assay type: cell-based; details: Ca-Ski, CaSki (Human cervix), 48 hours, average of three experiments, read-out: IC50 values (growth inhibition constants)
Description: as §1, §3

[9] = test system: human cervical, uterus and colon cancer cell lines and mouse fibrocercoma cells; assay: MTT cytotoxicity, panel of cancer cell lines (summary); assay type: cell-based; details: read-out: IC50 values, range
Description: as §1, §3

[10] = multidrug resistant cell line MES-SA/DX5

SMILES: CC(=O)O[C@H]1C(=O)[C@@]2(C)[C@H]([C@H](OC(=O)c3ccccc3)[C@]3(O)C[C@H](OC(=O)[C@H](O)[C@@H](NC(=O)c4ccccc4)c4ccccc4)C(C)=C1C3(C)C)[C@]1(OC(C)=O)CO[C@@H]1C[C@@H]2O [Paclitaxel]
- pIC50 [1]: 8.15
- pIC50 [2]: 5.07
- pIC50 [3]: 7.47
- pIC50 [4]: 5.96
- pIC50 [5]: 7.92
- cell survival after treatment [6]: similar
- pIC50 [7]: 6.52
- pIC50 [8]: 7.70

SMILES: CC[C@]1(O)C[C@@H]2CN(CCc3c([nH]c4ccccc34)[C@@](C(=O)OC)(c3cc4c(cc3OC)N(C)[C@H]3[C@@](O)(C(=O)OC)[C@H](OC(C)=O)[C@]5(CC)C=CCN6CC[C@]43[C@@H]65)C2)C1 [Vinblastine]
- pIC50 [1]: 6.70
- pIC50 [2]: 6.14
- pIC50 [3]: 9.00
- pIC50 [5]: 8.30
- cell survival after treatment [6]: less

SMILES: COc1ccc(Nc2nc(N)c(C(=O)c3ccccc3)s2)cc1 [DAT1, Diaminoketothiazole]
- pIC50 [1]: 6.70
- pIC50 [2]: 6.46
- times more active than paclitaxel [2, 10]: 15 times
- times more active than vinblastine [2, 10]: 2 times
- pIC50 ([9]; in 2 cell lines): 5.30 to 6.00
- pIC50 ([9]; in 5 out of the 9 cell lines tested): 6.52 to 7.30
- pIC50 [3]: 7.27
- pIC50 [4]: 5.30
- pIC50 [5]: 6.52
- cell survival after treatment [6]: good
- pIC50 [7]: 6.00
- pIC50 [8]: 6.70
